Data: US20250027127A1, “C[…] BACTERIA” (priority 2021, published 2025)

How the values were obtained:
[1] = room temperature
[2] = test system: Clz9; test: In vitro assays with Clz9 wild type and variants; type: biochemical, Streptomyces sp. CNH-287; settings: 12 hours, 37° C., pH 7.5
Description: (§1) The in vitro assays were performed following a modified procedure that was previously reported.^1 Assays (0.1 mL) contained 100 mM potassium phosphate buffer pH 7.5, 0.1 mg/mL^−1 catalase, 10 μL DMSO, 1 μL of a 20 mM stock solution of substrate and were initiated by addition of 20 μM wild type Clz9 or Tcz9 or their respective variants, unless otherwise altered to investigate the thermal and solvent effects on enzyme activity or product stability during time course experiments. Assays were allowed to incubate for 12 hat 37° C. before quenching with 150 μL acetonitrile. Assays were then centrifuged at 14000×g for 30 minutes and passed through a […] filter before injecting 50 μL of the solution for LC-MS analysis at a flow rate of 0.75 mL/min with a mobile phase combination of water+0.1% formic acid (A) and acetonitrile+0.1% formic acid (B) using a gradient as follows: 50% (B), 0 to 2 minutes; 50 to 100% (B), 2 to 10 min; 100% (B), 10 to 17 min; 100% to 50% (B), 17 to 18 min; 50% (B), 18 to 20 minutes.

[3] = test system: Tcz9; test: In vitro assays with Tcz9 wild type and variants; type: biochemical, Actinomycete sp. AJS-327; settings: 12 hours, 37° C., pH 7.5
Description: as §1

[4] = test system: Tcz9 T405Y; type: cell-based, Actinomycete sp. AJS-327; settings: I mM substrate, IL culture, 48 hours
[5] = test system: daurichromenic acid (DCA) synthase; settings: cited from earlier work

## O=C1C=C2C(=C(O)/C1=c1\ccc3cc(Cl)c(Cl)n13)C(=O)n1c2cc(Cl)c1Cl [compound 6]
[1]
  stability in aqueous solutions: unexpectedly stable

## O=C1C=C2C(=C(O)/C1=c1/ccc3cc(Cl)c(Cl)n13)C(=O)n1c2cc(Cl)c1Cl [compound 7]
[1]
  stability in aqueous solutions: unexpectedly stable

## CCCCCc1cc(O)c(C/C=C(\C)CCC=C(C)C)c(O)c1C(=O)O [compound 12a, cannabigerolic acid]
[2]; 5 mol %
  activity with wild type Clz9: showed activity
[2]
  activity with Clz9 F156T: nearly consumed all
  activity with Clz9 T438Y: increased conversion
[3]; 5 mol %
  activity with wild type Tcz9: showed activity
[3]
  activity with Tcz9 E368N: consumed all
  activity with Tcz9 T124F: abolished activity
  activity with Tcz9 T405Y: increased conversion
[4]
  conversion of substrate to products 15a and 17a: approximately 80%
[5]
  activity with DCA synthase: no activity

## CC(C)=CCC/C(C)=C/Cc1c(O)cc(C)c(C(=O)O)c1O [compound 12c, cannabigerorcinic acid]
[2]
  activity with the Clz9 enzymes (wild type and three variants): slightly different activity profile than 12b and 12a
[3]
  activity with the Tcz9 enzymes (wild type and three variants): slightly different activity profile than 12b and 12a

## CC(C)=CCC/C(C)=C/CC/C(C)=C/Cc1c(O)cc(C)c(C(=O)O)c1O [compound 19, grifolic acid]
[2]
  activity with the Clz9 enzymes (wild type and three variants): no activity
[3]
  activity with Tcz9 T124F: completely abolished activity
  activity with the Tcz9 enzymes (wild type and three variants): three of the four Tcz9 enzymes fully consumed
